Where two headings read alike, the source gives them in different places.
Experiments:
Type in all cases: cell-based
mouse TLR2 = biological target: T1, mouse TLR2 (Mus musculus, UniProt Q9QUN7); test: NF-κB activation in HEK 293T cells stably transfected with mouse TLR2; details: 103/104 at 0.1, 1 and 10 μg mL−1; Pam3CysSK4 1 μg mL−1; 4 h
T1 construct: host or cells: HEK 293T
Description: (§1) Induction of NF-κB activation was determined in triplicate cultures of HEK 293T cells stably transfected with human or mouse (a) TLR4/MD2/CD14 and (b) TLR2 and transiently transfected with pELAM-Luc and pRL-TK plasmids. Forty-four h post-transfection, cells were treated with (B) E. coli LPS (10 ng mL^−1), (C) Pam3CysSK4 (1 μg mL^−1), (D, E and F) 103 (0.1, 1 and 10 μg mL^−1, respectively), (G, H and I) 104 (0.1, 1 and 10 μg mL^−1, respectively) or (A) were left untreated (control). Forty-eight h post-transfection, NF-κB activation was determined by firefly luciferase activity relative to Renilla luciferase activity. n.a. indicates not analyzed.
(§2) To examine the ability of the synthetic compounds to induce activation of NF-κB, HEK 293T cells were employed that were stably transfected with various immune receptors and transiently transfected with a plasmid containing the reporter gene pELAM-Luc (NF-κB-dependent firefly luciferase reporter vector) and a plasmid containing the control gene pRL-TK (Renilla luciferase control reporter vector) (FIG. 11). […] Although compound 104 is a weak activator of mouse TLR4, it could not induce the secretion of cytokines.
(§3) The day before transfection, HEK 293T wild type cells and HEK 293T cells stably transfected with human and murine TLR4/MD2/CD14 and human and murine TLR2 were plated in 96-well tissue culture plates (16,000 cells/well). The next day, cells were transiently transfected using PolyFect Transfection Reagent (Qiagen) with expression plasmids pELAM-Luc (NF-κB-dependent firefly luciferase reporter plasmid, 50 ng/well) (Chow et al., J. Biol. Chem., 1999, 274, 10689-10692) and pRL-TK (Renilla luciferase control reporter vector, 1 ng/well; Promega) as an internal control to normalize experimental variations. […] The luciferase activity was measured using the Dual-Luciferase Reporter Assay System (Promega) according to the manufacturer's instructions and a combination luminometer/fluorometer microplate reader (BMG Labtech). […]

human TLR2 = biological target: T2, human TLR2 (Homo sapiens, UniProt O60603); test: NF-κB activation in HEK 293T cells stably transfected with human TLR2; details: 103/104 at 0.1, 1 and 10 μg mL−1; Pam3CysSK4 1 μg mL−1; 4 h
T2 construct: host or cells: HEK 293T
T2 sequence (O60603 21-784): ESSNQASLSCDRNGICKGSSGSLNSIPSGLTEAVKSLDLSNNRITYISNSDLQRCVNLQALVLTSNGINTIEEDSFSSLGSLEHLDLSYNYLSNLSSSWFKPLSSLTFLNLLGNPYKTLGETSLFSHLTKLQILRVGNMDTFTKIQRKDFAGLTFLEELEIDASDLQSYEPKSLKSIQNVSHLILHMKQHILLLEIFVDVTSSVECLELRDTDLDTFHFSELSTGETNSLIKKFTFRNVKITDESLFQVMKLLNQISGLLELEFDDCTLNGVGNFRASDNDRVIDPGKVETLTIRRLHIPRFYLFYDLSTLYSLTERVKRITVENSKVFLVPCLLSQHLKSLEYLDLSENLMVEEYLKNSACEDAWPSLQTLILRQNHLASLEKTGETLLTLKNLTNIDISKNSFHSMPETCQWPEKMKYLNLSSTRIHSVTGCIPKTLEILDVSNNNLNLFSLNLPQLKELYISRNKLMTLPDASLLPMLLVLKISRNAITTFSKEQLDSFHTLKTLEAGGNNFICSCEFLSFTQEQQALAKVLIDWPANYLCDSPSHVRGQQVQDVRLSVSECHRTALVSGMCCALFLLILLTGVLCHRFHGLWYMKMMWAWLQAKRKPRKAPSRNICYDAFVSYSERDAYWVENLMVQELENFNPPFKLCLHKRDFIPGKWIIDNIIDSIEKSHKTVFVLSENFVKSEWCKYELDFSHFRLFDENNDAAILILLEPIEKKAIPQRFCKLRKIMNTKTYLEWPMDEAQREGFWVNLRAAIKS
Description: as §1, §2, §3

RAW 264.7 γNO(−) cells = test: Cytokine induction and ELISAs in mouse macrophages (RAW 264.7 γNO(−) cells); details: for TNF-α and IFN-β production, dose response (in words) / EC50: supernatant, 5.5 h; for TNF-α and IFN-β production, dose response (in words): wide range of concentrations; for EC50: Example II, ELISA, best-fit value
Description: Mouse macrophages (RAW 264.7 γNO(−) cells) were exposed over a wide range of concentrations to compounds 1-5 and E. coli 055:B5 LPS. After 5.5 hours, the supernatants were harvested and examined for mouse TNF-α and IFN-β using a commercial and in-house developed capture ELISA assay, respectively. Potencies (EC50, concentration producing 50% activity) and efficacies (maximal level of production) were determined by fitting the dose-response curves to a logistic equation using PRISM software. […] It has also been shown that removal of the KDO moieties by mild acidic treatment reduces cellular responses (Demchenko et al., J. Am. Chem. Soc. 2003, 125, 6103-6112).
Having established the EC50 values of TNF-α and IFN-β secretion by compounds 1-5 and E. coli 055:B5 LPS, attention was focused on IL-6, IP-10, RANTES, and IL-1β responses. Thus, the previously harvested supernatants were analyzed for these cytokines using capture ELISA assays (FIG. 4, Table 1). For IL-6, IP-10, and RANTES, a short incubation time of 5.5 hrs was sufficient for detection. To achieve significant IL-1β secretion, the incubation had to be extended to 24 hrs. […] IL-1β is expressed as a pro-protein (pro-IL-1β), which is cleaved by caspase-1 into its active form (IL-1β), which is then secreted. Indeed, analyzing IL-1β of the cell lysates by Western blotting confirmed that it was present as a pro-protein (data not shown). TNF-α is also produced as a pro-protein, which is proteolitically cleaved by tumor necrosis factor-α converting enzyme (TACE) (Skotnicki and Levin, Annu. Rep. Med. Chem. 2003, 38, 153-162; Duffy et al., Thromb. Haemost. 2003, 89, 622-631). […] Furthermore, for each of the synthetic compounds and LPS, EC50 values of secreted TNF-α and intracellular pro-IL-1β were very similar. However, EC50 values for secreted mature IL-1β were larger by as much as 100-fold.
RAW 264.7 γNO(−) cells were plated on the day of the exposure assay as 2×10^5 cells/well in 96-well tissue culture plates (Nunc). Cells were incubated with different stimuli for 5.5 and 24 hours in replicates of five. Culture supernatants were then collected, pooled, and stored frozen (−80° C.) until assayed for cytokine production. After removal of the supernatant, cells were lysed by adding PBS containing Tween 20 (0.01%) and BSA (1%) in the same volume as that of the supernatant and sonicating for 5 min. The cell lysates were pooled and stored frozen (−80° C.) until assayed for cytokine production.
All cytokine ELISAs were performed in 96-well MaxiSorp plates (Nunc). Cytokine DuoSet ELISA Development Kits (R&D Systems) were used for the cytokine quantification of mouse TNF-α, IL-6, IP-10, RANTES, and IL-1β according to the manufacturer's instructions. The absorbance was measured at 450 nm with wavelength correction set to 540 nm using a microplate reader (BMG Labtech). Concentrations of IFN-β in culture supernatants were determined as follows. ELISA MaxiSorp plates were coated with rabbit polyclonal antibody against mouse IFN-β (PBL Biomedical Laboratories). IFN-β in standards and samples was allowed to bind to the immobilized antibody. Rat anti-mouse IFN-β antibody (USBiological) was then added, producing an antibody-antigen-antibody “sandwich”. Next, horseradish peroxidase (HRP) conjugated goat anti-rat IgG (H+L) antibody (Pierce) and a chromogenic substrate for HRP 3,3′,5,5′-tetramethylbenzidine (TMB; Pierce) were added. After the reaction was stopped, the absorbance was measured at 450 nm with wavelength correction set to 540 nm. All cytokine values are presented as the means±SD of triplicate measurements, with each experiment being repeated three times.
Concentration-response data were analyzed using nonlinear least-squares curve fitting in Prism (GraphPad Software, Inc.). […] The Hillslope was set at 1 to be able to compare the EC50 values of the different inducers. […]

[1] = at the highest concentration tested

T1 sequence (Q9QUN7 25-784): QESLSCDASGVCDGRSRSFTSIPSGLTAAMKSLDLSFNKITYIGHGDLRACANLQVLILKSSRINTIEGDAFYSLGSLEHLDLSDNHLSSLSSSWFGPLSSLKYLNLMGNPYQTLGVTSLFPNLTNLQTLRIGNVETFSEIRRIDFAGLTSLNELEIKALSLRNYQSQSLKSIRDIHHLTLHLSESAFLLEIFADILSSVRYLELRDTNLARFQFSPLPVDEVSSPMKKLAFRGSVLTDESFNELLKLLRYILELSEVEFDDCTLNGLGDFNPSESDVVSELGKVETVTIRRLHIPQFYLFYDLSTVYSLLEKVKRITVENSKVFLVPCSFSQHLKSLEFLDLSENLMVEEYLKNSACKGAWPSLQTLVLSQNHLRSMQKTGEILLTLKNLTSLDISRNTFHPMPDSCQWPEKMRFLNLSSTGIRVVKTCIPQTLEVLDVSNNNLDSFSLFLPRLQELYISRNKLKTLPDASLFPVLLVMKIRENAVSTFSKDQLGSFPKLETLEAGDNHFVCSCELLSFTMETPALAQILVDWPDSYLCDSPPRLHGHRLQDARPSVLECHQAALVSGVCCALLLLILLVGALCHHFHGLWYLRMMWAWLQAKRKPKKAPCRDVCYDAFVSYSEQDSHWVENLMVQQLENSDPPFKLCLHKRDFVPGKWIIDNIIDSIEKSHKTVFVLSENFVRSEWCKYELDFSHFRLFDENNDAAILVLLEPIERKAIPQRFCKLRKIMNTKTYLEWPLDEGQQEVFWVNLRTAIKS

Compound: Pam3CysSK4 [reference compound]
- NF-κB activation, mouse TLR2 (mouse TLR2): able to activate
- NF-κB activation, human TLR2 (human TLR2): able to activate

Compound: CCCCCCCCCCCCCCCC(=O)O[C@H](CCCCCCCCCCC)CC(=O)N[C@@H]1[C@@H](OC(=O)C[C@H](O)CCCCCCCCC)[C@H](O)[C@@H](CO[C@@H]2O[C@H](CO)[C@@H](O)[C@H](OC(=O)C[C@@H](CCCCCCCCC)OC(=O)CCCCCCCCCCC)[C@H]2NC(=O)C[C@@H](CCCCCCCCCCC)OC(=O)CCCCCCCCCCC)O[C@@H]1O [Lipid A 5, 6-O-{2-Deoxy-3-O—[(R)-3-dodecanoyloxy-dodecanoyl]-2-[(R)-3-dodecanoyloxy-tetradecanoylamino]-β-D-glucopyranosyl}-2-deoxy-2-[(R)-3-hexadecanoyloxy-tetredecanoylamino]-3-O—[(R)-3-hydroxy-dodecanoyl]-α-D-glucopyranose]
- TNF-α and IFN-β production, dose response (in words) (RAW 264.7 γNO(−) cells): inactive

Compound: (3-Deoxy-α-D-manno-oct-2-ulopyranosyl)onate-(2->6)-3-O—[(R)-3-hydroxy-dodecanoyl]-2-deoxy-2-[(R)-3-dodecanoyloxy-tetradecanoyl]-(R)-D-glucopyranosyl-(1→6)-3-O—[(R)-3-hydroxy-dodecanoyl]-2-deoxy-2-[(R)-3-dodecanoyloxy-tetradecanoyl]-α-D-glucopyranose 1,4′-biphosphate [lipid A 53]
- EC50 (RAW 264.7 γNO(−) cells; read-out: EC50 IFN-β): 0.2 nM
- EC50 (RAW 264.7 γNO(−) cells; read-out: EC50 TNF-α): 0.092 nM

Compound: 3-O—[(R)-3-Hydroxy-dodecanoyl]-2-deoxy-2-[(R)-3-dodecanoyloxy-tetradecanoylamino]-(R)-D-glucopyranosyl-(1→6)-2-[(R)-3-hydroxy-dodecanoylamino]-3-O—[(R)-3-dodecanoyloxy-dodecanoyl]-2-deoxy-α-D-glucopyranoside 1,4′-bisphosphate [lipid A 51]
- EC50 (RAW 264.7 γNO(−) cells; read-out: EC50 IFN-β): 4 nM
- EC50 (RAW 264.7 γNO(−) cells; read-out: EC50 TNF-α): 1.5 nM

Compound: CCCCCCCCCCCCCCCC(=O)O[C@H](CCCCCCCCCCC)CC(=O)N[C@H]1[C@@H](OP(=O)(O)O)O[C@H](CO[C@@H]2O[C@H](CO)[C@@H](OP(=O)(O)O)[C@H](OC(=O)C[C@@H](CCCCCCCCCCC)OC(=O)CCCCCCCCCCCCC)[C@H]2NC(=O)C[C@@H](CCCCCCCCCCC)OC(=O)CCCCCCCCCCC)[C@@H](O)[C@@H]1OC(=O)C[C@H](O)CCCCCCCCCCC [Lipid A 3, 6-O-{2-Deoxy-2-[(R)-3-dodecanoyloxy-tetradecanoylamino]-3-O—[(R)-3-tetradecanoyloxy-tetradecanoyl]-β-D-glucopyranosyl}-2-deoxy-2-[(R)-3-hexadecanoyl-tetradecanoylamino]-3-O—[(R)-3-hydroxy-tetradecanoyl]-α-D-glucopyranose 1,4′-bisphosphate]
- formation of IL-6, RANTES, and IL-1β (RAW 264.7 γNO(−) cells; [1]): no formation
- production of TNF-α, IFN-β, and IP-10 (RAW 264.7 γNO(−) cells; [1]): induced the production
- TNF-α and IFN-β production, dose response (in words) (RAW 264.7 γNO(−) cells): only a partial response at the highest concentration tested

Source: patent US9309276B2, “Synthetic lipid A derivative” (University of Georgia Research Foundation, Inc., priority 2007, dated 2016)
